Measured values reported in patent US9382572B2, “Methods of determining biocide efficacy or mechanism of action using flow cytometry” (Ecolab USA Inc., priority 2013, dated 2016).

Tests used:
[1] = system: E. coli growth in LB media; assay: Synergy between DDAC and TTPC by flow cytometry, Example 3; conditions: 40 ppm of biocide, ratio DDAC:TTPC
E. coli in LB media = assay: Effect of citric acid treatment on flow cytometry viable bacteria, Examples 8-9; type: cell-based, Escherichia coli; conditions: concentration less than or equal to 20 mM
Cultures of E. coli [2] = assay: Viability measured by flow cytometry, Example 6; type: cell-based; conditions: Escherichia coli, 4 hours at 37° C., n=3, ± 1 standard deviation, read-out: reduced viable bacteria (flow cytometry)
Protocol: (§1) Cultures of E. coli were left untreated or treated with tributyltetradecyl phosphonium chloride (TTPC) at 75 ppm, 150 ppm, or 300 ppm. Flow cytometry samples were prepared as described in Example 1 and triplicate culture bottles were prepared of the treated E. coli and untreated E. coli after 4 hours of incubation at 37° C. […] Viability was measured by flow cytometry and serial dilution in LB media. […] Error bars indicate 1 standard deviation. An asterisk indicates a statistically significant difference (p<0.05) and two asterisk indicates a p-value <0.01.

Cultures of E. coli [3] = assay: Viability by standard culture method (serial dilution in LB media), Example 6; type: cell-based; conditions: Escherichia coli, 4 hours at 37° C., n=3, ± 1 standard deviation, read-out: reduced viable bacteria (serial dilution culturing)
Protocol: as §1

SMILES | Depolarized and Membrane-damaged/mL [1] [mL⁻¹] | Depolarized/mL [1] [mL⁻¹] | Membrane-damaged/mL [1] [mL⁻¹] | Viable/mL [1] [mL⁻¹] | effect on cell viability when analyzed by flow cytometry (E. coli in LB media) | inhibition at 75 ppm (Cultures of E. coli [2]; 75 ppm) [%] | inhibition at 150 ppm (Cultures of E. coli [2]; 150 ppm) [%] | inhibition at 300 ppm (Cultures of E. coli [2]; 300 ppm) [%] | inhibition at 75 ppm (Cultures of E. coli [3]; 75 ppm) [%] | inhibition at 150 ppm (Cultures of E. coli [3]; 150 ppm) [%] | inhibition at 300 ppm (Cultures of E. coli [3]; 300 ppm) [%]
CCCCCCCCCC[N+](C)(C)CCCCCCCCCC.[Cl-] [10:0, didecyldimethylammonium chloride] | 555000 | 1.45e+06 | 349 | 5390 | – | – | – | – | – | – | –
O=C(O)CC(O)(CC(=O)O)C(=O)O [citric acid] | – | – | – | – | does not affect the cell viability | – | – | – | – | – | –
CCCCCCCCCCCCCC[P+](CCCC)(CCCC)CCCC.[Cl-] [TTPC, tributyl tetradecyl phosphonium chloride] | 1.67e+06 | 2.54e+06 | 537 | 6330 | – | 97.9 | 99.7 | 100 | 99 | 100 | 100
